Biological target: T1, human mAChR M4 (Homo sapiens, UniProt P08173)
T1 construct: expressed in transfected cells; host or cells: CHO-K1 (American Type Culture Collection), stably expressing hM4 and Gqi5
T1 sequence (P08173 1-479): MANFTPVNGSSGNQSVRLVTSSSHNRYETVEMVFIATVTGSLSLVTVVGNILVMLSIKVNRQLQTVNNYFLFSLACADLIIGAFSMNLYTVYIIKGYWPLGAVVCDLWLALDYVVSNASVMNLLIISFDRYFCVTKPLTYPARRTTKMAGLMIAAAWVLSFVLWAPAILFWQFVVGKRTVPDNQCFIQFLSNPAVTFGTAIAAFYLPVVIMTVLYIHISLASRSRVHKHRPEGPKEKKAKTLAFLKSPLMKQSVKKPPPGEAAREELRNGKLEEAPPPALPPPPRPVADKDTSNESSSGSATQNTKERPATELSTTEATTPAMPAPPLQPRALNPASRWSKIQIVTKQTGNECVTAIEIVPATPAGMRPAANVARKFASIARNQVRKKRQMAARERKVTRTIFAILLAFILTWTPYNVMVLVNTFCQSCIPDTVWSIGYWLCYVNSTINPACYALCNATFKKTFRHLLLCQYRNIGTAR
Test: mAChR M4 cell-based functional assay: calcium mobilization (Fluo-4, FDSS), potentiation of EC20 acetylcholine response in hM4-Gqi5 CHO-K1 cells
Conditions: human M4; for Emax at 30 µM: CHO-K1, % ACh maximum at 30 μM; for EC50: potentiation of EC20 acetylcholine response, calcium mobilization
In short: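 Readout is the fluorescence-ratio rise at 1 Hz on FDSS, with PAM activity taken as concentration-dependent enhancement of the EC20 acetylcholine response, fitted four-parameter for EC50/Emax. hM4-Gqi5 CHO-K1 cells carried Fluo-4 AM dye; test compounds (11 points, 1:3) preceded EC20 acetylcholine additions at 144 s and 230 s.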

Emax at 30 µM | EC50 | SMILES
92% | 52 nM | Cc1cc2nccc(=O)n2nc1N1CCc2ncc(Nc3cc(Cl)cnc3F)cc2C1 [Compound 2-116, 7-(3-((5-chloro-2-fluoropyridin-3-yl)amino)-7,8-dihydro-1,6-naphthyridin-6(5H)-yl)-8-methyl-4H-pyrimido[1,2-b]pyridazin-4-one]
72% | 321 nM | Cc1ccc2c(-c3cnc4c(c3)CN(c3nn5c(=O)ccnc5cc3C)CC4)cccc2n1 [Compound 1-48, 8-methyl-7-(3-(2-methylquinolin-5-yl)-7,8-dihydro-1,6-naphthyridin-6(5H)-yl)-4H-pyrimido[1,2-b]pyridazin-4-one]
48% |  | Cc1cc2nccc(=O)n2nc1N1CCc2ncc(-c3cccnc3C(C)(C)O)cc2C1 [Compound 1-418, 7-(3-(2-(2-hydroxypropan-2-yl)pyridin-3-yl)-7,8-dihydro-1,6-naphthyridin-6(5H)-yl)-8-methyl-4H-pyrimido[1,2-b]pyridazin-4-one]
78% | 1060 nM | Cc1cc2nccc(=O)n2nc1N1CCc2ncc(-c3cnc(Cl)cc3C(F)F)cc2C1 [Compound 1-329, 7-(3-(6-chloro-4-(difluoromethyl)pyridin-3-yl)-7,8-dihydro-1,6-naphthyridin-6(5H)-yl)-8-methyl-4H-pyrimido[1,2-b]pyridazin-4-one]
100% | 426 nM | Cc1c(N2CCc3ncc(-c4cncc(C#N)c4)cc3C2)nn2c(=O)cc(C(F)F)nc2c1C [Compound 1-157, 5-(6-(2-(difluoromethyl)-8,9-dimethyl-4-oxo-4H-pyrimido[1,2-b]pyridazin-7-yl)-5,6,7,8-tetrahydro-1,6-naphthyridin-3-yl)nicotinonitrile]
94% | 85 nM | COc1ccc(F)c(Nc2cnc3c(c2)CN(c2nn4c(=O)ccnc4cc2C)CC3)c1 [Compound 2-70, 7-(3-((2-fluoro-5-methoxyphenyl)amino)-7,8-dihydro-1,6-naphthyridin-6(5/)-yl)-8-methyl-4H-pyrimido[1,2-b]pyridazin-4-one]
80% | 353 nM | COc1cncc(-c2cnc3c(c2)CN(c2nn4c(=O)cc(C(F)F)nc4c(C)c2C)CC3)c1 [Compound 1-167, 2-(difluoromethyl)-7-(3-(5-methoxypyridin-3-yl)-7,8-dihydro-1,6-naphthyridin-6(5H)-yl)-8,9-dimethyl-4H-pyrimido[1,2-b]pyridazin-4-one]
72% | 445 nM | COc1cnccc1-c1cnc2c(c1)CN(c1nn3c(=O)cc(C)nc3cc1C)CC2 [Compound 1-259, 7-(3-(3-methoxypyridin-4-yl)-7,8-1,6-naphthyridin-6(5H)-yl)-2,8-dimethyl-4H-pyrimido[1,2-b]pyridazin-4-one]
128% | 39 nM | Cc1nc2c(C)c(C)c(N3CCc4ncc(N5CCCn6nccc65)cc4C3)nn2c(=O)c1F [Compound 2-12, 7-(3-(6,7-dihydropyrazolo[1,5-a]pyrimidin-4(5H)-yl)-7,8-dihydro-1,6-naphthyridin-6(5H)-yl)-3-fluoro-2,8,9-trimethyl-4H-pyrimido[1,2-b]pyridazin-4-one]
83% | 127 nM | Cc1c(N2CCc3ncc(-c4ccc(C5CC5)nc4)cc3C2)nn2c(=O)ccnc2c1C [Compound 1-91, 7-(3-(6-Cyclopropylpyridin-3-yl)-7,8-dihydro-1,6-naphthyridin-6(5H)-yl)-8,9-dimethyl-4H-pyrimido[1,2-b]pyridazin-4-one]
98% | 222 nM | Cc1cc(F)ccc1-c1cnc2c(c1)CN(c1nn3c(=O)ccnc3c(C)c1C)CC2 [Compound 1-264, 7-(3-(4-fluoro-2-methylphenyl)-7,8-dihydro-1,6-naphthyridin-6(5H)-yl)-8,9-dimethyl-4H-pyrimido[1,2-b]pyridazin-4-one]
76% | 331 nM | COCc1cc(=O)n2nc(N3CCc4ncc(-c5ccccc5C)cc4C3)c(C)cc2n1 [Compound 1-337, 2-(methoxymethyl)-8-methyl-7-(3-(o-tolyl)-7,8-dihydro-1,6-naphthyridin-6(5H)-yl)-4H-pyrimido[1,2-b]pyridazin-4-one]
90% | 138 nM | Cc1cc2nccc(=O)n2nc1N1CCc2ncc(-c3scnc3C)cc2C1 [Compound 1-395, 8-methyl-7-(3-(4-methylthiazol-5-yl)-7,8-dihydro-1,6-naphthyridin-6(5H)-yl)-4H-pyrimido[1,2-b]pyridazin-4-one]
68% | 298 nM | COCc1cc(=O)n2nc(N3CCc4ncc(-c5cnn(C6CC6)c5)cc4C3)c(C)cc2n1 [Compound 1-364, 7-(3-(1-cyclopropyl-1H-pyrazol-4-yl)-7,8-dihydro-1,6-naphthyridin-6(5H)-yl)-2-(methoxymethyl)-8-methyl-4H-pyrimido[1,2-b]pyridazin-4-one]
71% | 141 nM | COCc1cc(=O)n2nc(N3CCc4ncc(-c5cccs5)cc4C3)c(C)cc2n1 [Compound 1-367, 2-(methoxymethyl)-8-methyl-7-(3-(thiophen-2-yl)-7,8-dihydro-1,6-naphthyridin-6(5H)-yl)-4H-pyrimido[1,2-b] pyridazin-4-one]
80% | 127 nM | Cc1cc2ncc(Cl)c(=O)n2nc1N1CCc2ncc(-c3cnn(C4CC4)c3)cc2C1 [Compound 1-12, 3-chloro-7-(3-(1-cyclopropyl-1H-pyrazol-4-yl)-7,8-dihydro-1,6-naphthyridin-6(5H)-yl)-8-methyl-4H-pyrimido[1,2-b]pyridazin-4-one]
49% | 1480 nM | Cc1cc2nccc(=O)n2nc1N1CCc2ncc(-c3cnc(F)c(Cl)c3)cc2C1 [Compound 1-326, 7-(3-(5-chloro-6-fluoropyridin-3-yl)-7,8-dihydro-1,6-naphthyridin-6(5H)-yl)-8-methyl-4H-pyrimido[1,2-b]pyridazin-4-one]
90% | 145 nM | COc1ccc(-c2cnc3c(c2)CN(c2nn4c(=O)cc(C)nc4cc2C)CC3)cn1 [Compound 1-71, 7-(3-(6-methoxypyridin-3-yl)-7,8-dihydro-1,6-naphthyridin-6(5H)-yl)-2,8-dimethyl-4H-pyrimido[1,2-b]pyridazin-4-one]
77% | 1100 nM | Cc1cc(F)c(F)c(-c2cnc3c(c2)CN(c2nn4c(=O)cc(C(F)F)nc4c(C)c2C)CC3)c1 [Compound 1-284, 7-(3-(2,3-difluoro-5-methylphenyl)-7,8-dihydro-1,6-naphthyridin-6(5H)-yl)-2-(difluoromethyl)-8,9-dimethyl-4H-pyrimido[1,2-b] pyridazin-4-one]
96% | 92 nM | Cc1cc2nccc(=O)n2nc1N1CCc2ncc(Nc3ccncc3)cc2C1 [Compound 2-97, 8-methyl-7-(3-(pyridin-4-ylamino)-7,8-dihydro-1,6-naphthyridin-6(5H)-yl)-4H-pyrimido[1,2-b]pyridazin-4-one]
66% | 416 nM | Cc1cc2nccc(=O)n2nc1N1CCc2ncc(N3CCOC(Cc4ccccc4)C3)cc2C1 (stereo not drawn) [Compound 2-99, 7-(3-(2-benzylmorpholino)-7,8-dihydro-1,6-naphthyridin-6(5H)-yl)-8-methyl-4H-pyrimido[1,2-b]pyridazin-4-one]
87% | 28 nM | Cc1ccc2c(c1)N(c1cnc3c(c1)CN(c1nn4c(=O)ccnc4cc1C)CC3)CCO2 [Compound 2-53, 8-methyl-7-(3-(6-methyl-2,3-dihydro-4H-benzo[b][1,4]oxazin-4-yl)-7,8-dihydro-1,6-naphthyridin-6(5H)-yl)-4H-pyrimido[1,2-b]pyridazin-4-one]
68% | 2600 nM | Cc1cccnc1-c1cnc2c(c1)CN(c1nn3c(=O)ccnc3cc1C)CC2 [Compound 1-348, 8-methyl-7-(3-(3-methylpyridin-2-yl)-7,8-dihydro-1,6-naphthyridin-6(5H)-yl)-4H-pyrimido[1,2-b]pyridazin-4-one]
92% | 16 nM | Cc1cc2nccc(=O)n2nc1N1CCc2ncc(Nc3ccnc(F)c3)cc2C1 [Compound 2-123, 7-(3-((2-fluoropyridin-4-yl)amino)-7,8-dihydro-1,6-naphthyridin-6(5H)-yl)-8-methyl-4H-pyrimido[1,2-b]pyridazin-4-one]
48% | 503 nM | Cc1c(N2CCc3ncc(-c4ccccc4C(C)C)cc3C2)nn2c(=O)ccnc2c1C [Compound 1-340, 7-(3-(2-isopropylphenyl)-7,8-dihydro-1,6-naphthyridin-6(5H)-yl)-8,9-dimethyl-4H-pyrimido[1,2-b]pyridazin-4-one]
79% | 373 nM | Cc1ncc(-c2cnc3c(c2)CN(c2nn4c(=O)c(Cl)cnc4cc2C)CC3)s1 [Compound 1-13, 3-chloro-8-methyl-7-(3-(2-methylthiazol-5-yl)-7,8-dihydro-1,6-naphthyridin-6(5H)-yl)-4H-pyrimido[1,2-b]pyridazin-4-one]
